Reference: article PMC8609367 (mBio, 2021)
Values after ≈ are worked out from the molar mass of the structure shown. Values joined by “and” are separate entries in the source; they are usually repeats but may differ in a detail not shown here. Identical values can stand only once.

Assays:
[1] = system: cryptococcal model of invasive fungal infection; parameters: method as in PMID 31537789; details: murine model; cited from earlier work
McFKBP12 = target: T1, McFKBP12 (Mucor circinelloides, UniProt U3N5X4); assay: ITC binding to M. circinelloides FKBP12; details: for Kd / Stoichiometry / TΔS / ΔG° / ΔH: ITC, 25°C, average from triplicates
T1 sequence (U3N5X4 1-108): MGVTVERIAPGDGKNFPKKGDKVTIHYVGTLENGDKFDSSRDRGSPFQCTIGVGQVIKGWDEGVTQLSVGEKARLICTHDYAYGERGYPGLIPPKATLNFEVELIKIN
Method: (§1) The lower panel represents the integrated heat changes upon binding (kilocalories/mole) corrected for the protein and ligand heat of dilution. Fitting was performed using the MicroCal Origin software. Download FIG S2, TIF file, 0.9 MB.
(§2) After the size exclusion purification, the proteins were concentrated to ∼2 mg/ml using a 3,000-MWCO Amicon concentrator. Proteins were exhaustively dialyzed at 4°C in the isothermal titration calorimetry (ITC) buffer (50 mM sodium phosphate, 50 mM sodium chloride, pH 7.0). Experiments were performed using a VP-ITC instrument (MicroCal Inc., Northampton, MA) at 25°C. All solutions were degassed under vacuum at 25°C for 15 min immediately before use. […] was loaded into the syringe at a concentration of 25 μM and titrated in by a first injection of 2 μl followed by 22 injections of 6 μl. Following each injection, the cell was equilibrated for 3 min. […] The proteins were loaded in the cell at a concentration of 10 μM with constant stirring at 307 rpm (25°C). […] The enthalpy of binding (ΔH, kilocalories/mole) was determined by integration of the injection peaks minus the controls for the heat of dilution (equivalent experiments without the ligand and without the protein). The MicroCal Origin software (OriginLab Corp., Northampton, MA) was used for a variety of binding models.

Cryptococcus neoformans = system: Cryptococcus neoformans; parameters: method as in PMID 31537789; details: C. neoformans; cited from earlier work
[2] = system: T helper cell-dependent germinal center B cell response; parameters: method as in PMID 31537789; details: cited from earlier work
AfFKBP12 = target: T2, AfFKBP12 (Aspergillus fumigatus, UniProt Q4WLV6); assay: biochemical; assay type: binding; details: for TΔS / ΔG° / ΔH / Stoichiometry / Kd: ITC, 25°C, average from triplicates; for Stoichiometry: ligand-FKBP12
T2 construct: His6 (thrombin-cleavable) (N, cleaved yes); made in house; host or cells: E. coli BL21(DE3)
T2 sequence (Q4WLV6 1-112): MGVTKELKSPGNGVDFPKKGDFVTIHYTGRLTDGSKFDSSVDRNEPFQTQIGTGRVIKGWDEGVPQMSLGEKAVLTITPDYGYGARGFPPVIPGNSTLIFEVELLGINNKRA
Method: as §1, §2

Candida albicans = system: Candida albicans; parameters: method as in PMID 31537789; details: in vitro; cited from earlier work
hFKBP12 = target: T3, hFKBP12 (Homo sapiens, UniProt P62942); assay: ITC binding to human FKBP12
T3 construct: His6 (thrombin-cleavable) (N, cleaved yes); made in house; host or cells: E. coli BL21(DE3)
Method: as §1, §2

[3] = Solubility noted in ITC set-up; assay type: physicochemical; details: restricting the usable concentration in ITC
Method: as §2

[4] = system: interleukin-2 (IL-2) production in primary murine CD4+ T cells; parameters: method as in PMID 31537789; details: reduction of IL-2 production in primary murine CD4+ T cells; cited from earlier work
[5] = system: A. fumigatus strains expressing McFKBP12 or McFKBP12-Y88F; assay: Growth assay of A. fumigatus strains expressing FKBP12 variants in presence of FK506; assay type: cell-based, Aspergillus fumigatus
Method: A. fumigatus wild-type strain akuB^KU80 was used for growth and recombinant strain generation experiments. A. fumigatus wild-type or recombinant strains were cultured on glucose minimal medium (GMM) or RPMI liquid medium at 37°C for 24- or 48-h- periods. […] All growth experiments were repeated as technical triplicates, each also as biological triplicates.

[6] = parameters: method as in PMID 1380976; details: cited from earlier work
[7] = parameters: method as in PMID 1380976; details: cited from earlier work; remark: listed apart in the source
FKBP12 = system: FKBP12; parameters: method as in PMID 1380976; details: cited from earlier work
[8] = ITC, 25°C, average from triplicates

T3 sequence (P62942 whole entry): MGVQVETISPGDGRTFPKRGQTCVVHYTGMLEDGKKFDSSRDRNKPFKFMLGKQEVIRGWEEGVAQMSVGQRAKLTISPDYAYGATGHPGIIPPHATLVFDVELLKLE

| Compound | Kd (McFKBP12) | Stoichiometry (McFKBP12) | TΔS (McFKBP12) [kcal/mol] | ΔG° (McFKBP12) [kcal/mol] | ΔH (McFKBP12) [kcal/mol] | TΔS (AfFKBP12) [kcal/mol] | ΔG° (AfFKBP12) [kcal/mol] | ΔH (AfFKBP12) [kcal/mol] | Stoichiometry (AfFKBP12) | Kd (AfFKBP12) [µM] | Stoichiometry (hFKBP12; [8]) | TΔS (hFKBP12; [8]) [kcal/mol] | ΔG° (hFKBP12; [8]) [kcal/mol] | ΔH (hFKBP12; [8]) [kcal/mol] | also measured |
| --- | --- | --- | --- | --- | --- | --- | --- | --- | --- | --- | --- | --- | --- | --- | --- |
| C=CCC1C=C(C)CC(C)CC(OC)C2OC(O)(C(=O)C(=O)N3CCCCC3C(=O)OC(C(C)=CC3CCC(O)C(OC)C3)C(C)C(O)CC1=NNC(C)=O)C(C)CC2OC (stereo not drawn) [APX879] | ~0.12 µM and 0.126 µM | 0.93 ± 0.17 | 7.4 ± 0.2 | -9.4 ± 0.2 | -2.0 ± 0.1 | 7.2 ± 1.0 | -8.0 ± 1.0 | -1.2 ± 0.4 | 1.96 ± 0.13 | 0.462 | 1.41 ± 0.03 | 7.4 ± 0.8 | -9.2 ± 0.9 | -1.8 ± 0.4 | Efficacy in cryptococcal model [1]: confirmed efficacy; Reduction in affinity compared to FK506 (McFKBP12; ITC KD, APX879 versus FK506): ~40 fold; Reduction in antifungal efficacy compared to FK506 (Cryptococcus neoformans): 17 fold; Ability to stimulate T helper cell-dependent germinal center B cell response ([2]; in comparison to FK506 treatment, animal models): significant reduction; Immunosuppressive activity in vivo ([2]; murine model): reduced immunosuppressive activity; Reduction in affinity compared to FK506 (AfFKBP12; ITC KD, APX879 versus FK506): 100 fold; MIC (Candida albicans): 8 µg/mL (≈ 9.3 µM); Reduction in affinity compared to FK506 (hFKBP12; ITC KD, APX879 versus FK506): ~40 fold; Kd (hFKBP12; [8]): ~0.12 µM and 0.119 µM; Solubility [3]: low solubility; Reduced immunosuppressive activity compared to FK506 [4]: 71 fold |
| C=CC[C@@H]1/C=C(\C)C[C@H](C)C[C@H](OC)[C@H]2O[C@@](O)(C(=O)C(=O)N3CCCC[C@H]3C(=O)O[C@H](/C(C)=C/[C@@H]3CC[C@@H](O)[C@H](OC)C3)[C@H](C)[C@@H](O)CC1=O)[C@H](C)C[C@@H]2OC [FK506, reference compound] | 0.003 ± 0.0007 µM | 1.06 ± 0.06 | 1.9 ± 0.2 | -11.7 ± 0.2 | -9.8 ± 0.1 | 4.6 ± 0.3 | -11.3 ± 0.4 | -6.7 ± 0.3 | 2.02 ± 0.06 | 0.0047 ± 0.0006 | 1.09 ± 0.03 | -3.3 ± 1.2 | -12.0 ± 1.6 | -15.0 ± 1.1 | Toxicity in animal models ([2]; animal models): acute toxicity; FK506 sensitivity of A. fumigatus strain expressing McFKBP12 ([5]; Affkbp12 locus replaced with Mcfkbp12, increasing concentrations of FK506): does not restore A. fumigatus FK506 sensitivity; FK506 sensitivity of A. fumigatus strain expressing McFKBP12-Y88F ([5]; McFKBP12-Y88F mutant): restoration of FK506 sensitivity |
| CC[C@@H]1/C=C(\C)[C@@H](O)[C@H](C)C[C@H](OC)[C@H]2O[C@@](O)(C(=O)C(=O)N3CCCC[C@H]3C(=O)O[C@H](/C(C)=C/[C@@H]3CC[C@@H](O)[C@H](OC)C3)[C@H](C)[C@@H](O)CC1=O)[C@H](C)C[C@@H]2OC [L-685,818] | – | – | – | – | – | – | – | – | – | – | – | – | – | – | Antifungal activity [6]: retains antifungal activity; Immunosuppressive activity [7]: nonimmunosuppressive; Binding to FKBP12 (FKBP12): still binds to FKBP12 |
